One series concerns SUN-1 cells. As to the kind of experiment: MTS cell viability / proliferation assay. Format: cell-based. The note with it: 72 hrs, in combination with sorafenib. On the procedure: Gastric cancer cell line SUN-1 was purchased from the American Type Culture Collection (ATCC; Manassas, Va., USA) and were maintained in Roswell Park Memorial Institute-1640 (RPMI-1640) supplemented with 1.5 g/L sodium bicarbonate, 10% fetal bovine serum (FBS), 1.0% antibiotic-antimycotic, L-glutamine (2.0×10^−3 M), and 1.0% nonessential amino acids.
MTS cell proliferation assay kit (Abcam, Cambridge, UK) was used to evaluate cell viability. Briefly, SNU-1 cells were seeded in each well of a 96-well plate at the density of 8,000 cells/well and incubated overnight at 37° C. Cells were then treated with a test drug for 48 or 72 h at 37° C. Then, 20 μl MTS/well was added and incubated for 3 h at 37° C. Cell viability was measured by absorbance at 490 nm in a microplate reader.
To validate the bioactivity of the ammonium salts of GW5074 of Example 1, their effects on cell proliferation with or without the addition of another cell proliferation inhibitor-sorafenib, were investigated using MTS cell proliferation assay kit in accordance with the manufacturer's protocols. Results are illustrated FIGS. 1A and 1B.

For series [1] the following is noted: mouse, in vivo, 40 mg/kg.
Method: (§1) B6 mice about 6-8 weeks of age (National laboratory animal center, Taipei, Taiwan) were used in the present study.
(§2) Pilot PK studies were carried out in mice.
(§3) Mice were fasting for 8 hrs before dosing. […] Blood samples were drawn from the tail vein at pre-designated time points. Each samples were extracted with 80% ethanol for 30 minutes and individually filtered through a 0.22 μm PVDF filter, then were subjected to HPLC-MS/MS.
A short description of series [2]: Pilot pharmacokinetic study in mice. As to conditions: single dose 40 mg/Kg, GW5074 measured in plasma; for AUC0-t: 0 to 24 hours.
Method: as §1, §2, §3
Series [3] in a line: Water solubility of GW5074 salts.

The structures appear in SMILES notation. Read-outs that look alike come from different tables or passages of the source.

As usually defined, the Cmax is the highest concentration seen after dosing. By Tmax is commonly meant the time at which the peak concentration occurs. As to `O=C1Nc2ccc(I)cc2C1=Cc1cc(Br)c(O)c(Br)c1` [GW5074, 3-(3,5-dibromo-4-hydroxybenzyliden)-5-iodo-1,3-duhydroindol-2-one], the growth inhibition entry in the series on SUN-1 cells is “about 70%”. Further, in series [1], the AUC0-t was 6127.9 ng·h/mL, the Cmax came out at 4905.2 ng/mL, the T1/2 is 3.719 h and the Tmax is 0.5 h.
Regarding `O=C1Nc2ccc(I)cc2C1=Cc1cc(Br)c([O-])c(Br)c1.[Na+]` [MG-A1, Sodium Salts of GW5074], the growth inhibition result in the series on SUN-1 cells was “about 70%”.
In the case of `CC(C)(N)CN.O=C1Nc2ccc(I)cc2C1=Cc1cc(Br)c(O)c(Br)c1` [MG-A2, 2-Amino-2-Methylpropylamine Salt of GW5075], in the series with SUN-1 cells, the growth inhibition result is listed as “about 70%”. For the same molecule, in series [2], the Cmax is 6447.7 ng/mL, the T1/2 stood at 4.855 h, the Tmax came to 0.5 h and the AUC0-t was found to be 7936.2 ng·h/mL. For the same molecule, the Solubility in series [3] was 0.19 mg/100 mL.
For `O=C1Nc2ccc(I)cc2C1=Cc1cc(Br)c(O)c(Br)c1.OCCN(CCO)CCO` [MG-A3, Triethanolamine Salt of GW5075], the growth inhibition entry with SUN-1 cells was “about 70%”. For the same molecule, in series [2], the Cmax turned out to be 6844.6 ng/mL, the T1/2 was 4.364 h, the Tmax worked out at 0.5 h and the AUC0-t amounted to 8258.7 ng·h/mL.
In the case of `C1COCCN1.O=C1Nc2ccc(I)cc2C1=Cc1cc(Br)c(O)c(Br)c1` [Morpholine Salt of GW5075], in series [3], the Solubility is reported as 0.57 mg/100 mL.

Values taken from US11304930B2, “Ammonium salts of 3-(3,5-dibromo-4-hydroxybenzyliden)-5-indo-1,3-dihydroindol-2-one and uses thereof” (Metagone Biotech Inc., priority 2018, dated 2022).
